Non-standard residues stand in square brackets, D forms with d. Residues, ends and D or L forms follow the SMILES beside them. *: point of attachment. dAla(benzothien-2-yl) = N[C@H](Cc1cc2ccccc2s1)C(=O)O; Shikimoyl = O=C(C1=C[C@@H](O)[C@@H](O)[C@H](O)C1)*; Quinoline3carbonyl = O=C(c1cnc2ccccc2c1)*; dPhe(4-Cl) = N[C@H](Cc1ccc(Cl)cc1)C(=O)O; d2Nal = N[C@H](Cc1ccc2ccccc2c1)C(=O)O; Lys(iPr) = CC(C)NCCCC[C@H](N)C(=O)O; NMeY = CN[C@@H](Cc1ccc(O)cc1)C(=O)O; dCit = NC(=O)NCCC[C@@H](N)C(=O)O; hArg = N=C(N)NCCCC[C@H](N)C(=O)O; d3Pal = N[C@H](Cc1cccnc1)C(=O)O; Isonicotinoyl = O=C(c1ccncc1)*; Nicotinoyl = O=C(c1cccnc1)*; 2Furoyl = O=C(c1ccco1)*; Aze = O=C(O)[C@@H]1CCN1; X3 = O=C([C@@H]1CCOC1)*; azaGly = NNC(=O)O

The target in the test is T1, LHRH (Rattus norvegicus, UniProt P30969).
T1 construct: endogenous in cells; host or cells: rat pituitary cells (own knowledge of the cited Haviv 1989 method)
T1 sequence (P30969 1-327): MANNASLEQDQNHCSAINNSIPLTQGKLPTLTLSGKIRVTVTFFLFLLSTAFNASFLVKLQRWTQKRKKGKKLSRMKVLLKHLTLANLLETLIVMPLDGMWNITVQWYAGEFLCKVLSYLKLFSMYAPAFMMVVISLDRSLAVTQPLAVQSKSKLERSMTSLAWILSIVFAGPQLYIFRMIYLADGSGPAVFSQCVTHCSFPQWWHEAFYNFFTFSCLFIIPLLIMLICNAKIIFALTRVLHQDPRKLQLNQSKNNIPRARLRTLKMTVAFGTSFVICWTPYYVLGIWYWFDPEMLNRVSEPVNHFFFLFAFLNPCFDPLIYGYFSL
The test can be described thus: in vitro test for LHRH antagonist potency (pA2). The test is classed as cell-based. As to conditions: negative logarithm of the antagonist concentration required to shift the response curve produced by the agonist leuprolide to two-fold higher concentration. Put shortly: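 Antagonism read against the agonist leuprolide on rat LHRH receptor; value is pA2, the −log of antagonist concentration that doubles the agonist concentration needed for the same response.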
As for `CC(C)C[C@H](NC(=O)[C@@H](CCCCNC(=O)c1cccnc1)NC(=O)[C@H](Cc1ccc(O)cc1)N(C)C(=O)[C@H](CO)NC(=O)[C@@H](Cc1cccnc1)NC(=O)[C@@H](Cc1ccc(Cl)cc1)NC(=O)[C@@H](Cc1ccc2ccccc2c1)NC(=O)[C@@H]1CCOC1)C(=O)N[C@@H](CCCCNC(C)C)C(=O)N1CCC[C@H]1C(=O)N[C@H](C)C(N)=O` [Example 70, N-(R)-Tetrahydrofur-3-oyl-D2Nal-D4ClPhe-D3Pal-Ser-NMeTyr-DLys(Nic)-Leu-Lys(Isp)-Pro-DAlaNH2] (X3-[d2Nal][dPhe(4-Cl)][d3Pal]S[NMeY][dK](Nicotinoyl)L[Lys(iPr)]P[dA]-NH2), the antagonist dissociation constant (Kb) (as a rule, the equilibrium dissociation constant of an antagonist, usually derived from a functional assay) was 0.0126 nM.

Take `CC(C)C[C@H](NC(=O)[C@@H](CCCCNC(=O)c1cccnc1)NC(=O)[C@H](Cc1ccc(O)cc1)N(C)C(=O)[C@H](CO)NC(=O)[C@@H](Cc1cccnc1)NC(=O)[C@@H](Cc1ccc(Cl)cc1)NC(=O)[C@@H](Cc1ccc2ccccc2c1)NC(=O)CNC(=O)c1ccco1)C(=O)N[C@@H](CCCCNC(C)C)C(=O)N1CCC[C@H]1C(=O)N[C@H](C)C(N)=O` [Example 2c, N-2-Furoyl-Gly-D2Nal-D4ClPhe-D3Pal-Ser-NMeTyr-DLys(N-epsilon-Nicotinyl) -Leu-Lys(N-epsilon-Isopropyl)-Pro-DAlaNH2] (2Furoyl-G[d2Nal][dPhe(4-Cl)][d3Pal]S[NMeY][dK](Nicotinoyl)L[Lys(iPr)]P[dA]-NH2): the Kb is 0.00794 nM.

For `CC(C)C[C@H](NC(=O)[C@@H](CCCNC(N)=O)NC(=O)[C@H](Cc1ccc(O)cc1)N(C)C(=O)[C@H](CO)NC(=O)[C@@H](Cc1cccnc1)NC(=O)[C@@H](Cc1ccc(Cl)cc1)NC(=O)[C@@H](Cc1ccc2ccccc2c1)NC(=O)c1ccco1)C(=O)N[C@@H](CCCNC(=N)N)C(=O)N1CCC[C@H]1C(=O)N[C@H](C)C(N)=O` [Example 78d, N-2-Furoyl-D2Nal-D4ClPhe-D3Pal-Ser-NMeTyr-DCit-Leu-Arg-Pro-DAlaNH2] (2Furoyl-[d2Nal][dPhe(4-Cl)][d3Pal]S[NMeY][dCit]LRP[dA]-NH2), the Kb is 0.00794 nM.

Regarding `CC(C)C[C@H](NC(=O)[C@@H](CCCCNC(=O)C1=C[C@@H](O)[C@@H](O)[C@H](O)C1)NC(=O)[C@H](Cc1ccc(O)cc1)N(C)C(=O)[C@H](CO)NC(=O)[C@@H](Cc1cccnc1)NC(=O)[C@@H](Cc1ccc(Cl)cc1)NC(=O)[C@@H](Cc1ccc2ccccc2c1)NC(=O)CNC(=O)c1cnc2ccccc2c1)C(=O)N[C@@H](CCCCNC(=N)N)C(=O)N1CCC[C@H]1C(=O)N[C@H](C)C(N)=O` [Example 25g, N-(3-Quinolinylcarbonyl)-Gly-D2Nal-D4ClPhe-D3Pal-Ser-NMeTyr-DLys(Shikimyl)-Leu-Harg-Pro-DAlaNH2] (Quinoline3carbonyl-G[d2Nal][dPhe(4-Cl)][d3Pal]S[NMeY][dK](Shikimoyl)L[hArg]P[dA]-NH2), the Kb was 0.0324 nM.

Consider `CC(C)C[C@H](NC(=O)[C@@H](CCCCNC(=O)c1cccnc1)NC(=O)[C@H](Cc1ccc(O)cc1)N(C)C(=O)[C@H](CO)NC(=O)[C@@H](Cc1cccnc1)NC(=O)[C@@H](Cc1ccc(Cl)cc1)NC(=O)[C@@H](Cc1ccc2ccccc2c1)NC(=O)CNC(=O)C1=C[C@@H](O)[C@@H](O)[C@H](O)C1)C(=O)N[C@@H](CCCNC(=N)N)C(=O)N1CC[C@H]1C(=O)N[C@H](C)C(N)=O` [Example 27c, N-Shikimyl-Gly-D2Nal-D4ClPhe-D3Pal-Ser-NMeTyr-DLys(Nic)-Leu-Arg-Aze-DAlaNH2] (Shikimoyl-G[d2Nal][dPhe(4-Cl)][d3Pal]S[NMeY][dK](Nicotinoyl)LR[Aze][dA]-NH2), for which the Kb was 0.0977 nM.

In the case of `CC(C)C[C@H](NC(=O)[C@@H](CCCCNC(=O)c1cccnc1)NC(=O)[C@H](Cc1ccc(O)cc1)N(C)C(=O)[C@H](CO)NC(=O)[C@@H](Cc1cc2ccccc2s1)NC(=O)[C@@H](Cc1ccc(Cl)cc1)NC(=O)NNC(=O)c1ccncc1)C(=O)N[C@@H](CCCCNC(C)C)C(=O)N1CCC[C@H]1C(=O)N[C@H](C)C(N)=O` [Example 33b, N-Isonicotinyl-Azagly-D4ClPhe-DBal-Ser-NMeTyr-DLys(Nic)-Leu-Lys(Isp)-Pro-DAlaNH2] (Isonicotinoyl-[azaGly][dPhe(4-Cl)][dAla(benzothien-2-yl)]S[NMeY][dK](Nicotinoyl)L[Lys(iPr)]P[dA]-NH2), the Kb was 0.02 nM.

(Values after patent US5502035A, “N-terminus modified analogs of LHRH” (Tap Holdings Inc., priority 1994, dated 1996).)
